Our source for the IC50 and melting point values is US10000450B2, “N,N-substituted 3-aminopyrrolidine compounds useful as monoamines reuptake inhibitors” (OTSUKA PHARMACEUTICAL CO., LTD., priority 2005, dated 2018).

pIC50: −log10 of the molar value. Counter-ions that a name gives are not always drawn.

In data set [1] the target is T1, Dopamine (DA) uptake into rat brain synaptosome (striatum) (Rattus norvegicus, UniProt P23977).
T1 construct: used as crude synaptosome fraction; from tissue; host or cells: rat (male Wistar) striatum, crude synaptosome fraction
T1 sequence (P23977 whole entry): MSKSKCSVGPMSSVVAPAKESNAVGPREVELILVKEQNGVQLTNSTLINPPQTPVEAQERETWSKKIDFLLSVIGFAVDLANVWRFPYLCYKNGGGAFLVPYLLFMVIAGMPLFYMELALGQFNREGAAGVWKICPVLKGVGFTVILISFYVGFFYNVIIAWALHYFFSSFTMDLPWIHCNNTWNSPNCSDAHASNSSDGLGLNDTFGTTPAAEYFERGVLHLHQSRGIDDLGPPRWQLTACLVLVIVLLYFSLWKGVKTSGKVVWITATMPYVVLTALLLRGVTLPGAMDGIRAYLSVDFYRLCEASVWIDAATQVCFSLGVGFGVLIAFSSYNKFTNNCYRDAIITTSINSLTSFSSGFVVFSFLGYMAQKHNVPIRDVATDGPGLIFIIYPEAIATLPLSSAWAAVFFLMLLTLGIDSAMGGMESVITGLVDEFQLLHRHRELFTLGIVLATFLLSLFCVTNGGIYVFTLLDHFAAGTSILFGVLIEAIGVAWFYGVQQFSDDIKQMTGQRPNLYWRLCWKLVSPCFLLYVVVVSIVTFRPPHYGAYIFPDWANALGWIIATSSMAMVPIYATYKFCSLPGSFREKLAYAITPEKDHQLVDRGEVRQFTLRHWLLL
The data set is described as follows: Inhibitory activity on dopamine (DA) uptake into rat brain synaptosome. It counts as biochemical. The settings on record: tritium labeled DA 2 nM uptake, 10 min at 37° C., read-out: 50% inhibitory concentration. As for the experimental part:
Pharmacological Test 3 Evaluation of Inhibitory Activity of Test Compound on Dopamine (DA) into Rat Brain Synaptosome
(§1) Male Wistar rats were decapitated and the brains were removed and the striata were dissected. The separated striata were homogenized in 20 volumes as weight of 0.32 M sucrose solution by a Potter-type homogenizer. The homogenate was centrifuged at 1000 g at 4° C. for 10 minutes, and the supernatant was then centrifuged at 20000 g at 4° C. for 20 minutes. The pellet was resuspended in incubation buffer (20 mM HEPES buffer (pH 7.4)) containing 10 mM glucose, 145 mM sodium chloride, 4.5 mM potassium chloride, 1.2 mM magnesium chloride, and 1.5 mM calcium chloride) and used as crude synaptosome fraction.
(§2) The uptake reaction mixture was suspended in a final volume of 200 μl containing pargyline (final concentration of 10 μM) and sodium ascorbate (final concentration of 0.2 mg/ml) in each well of 96-well-round-bottom-plate.
Solvent, unlabeled DA, and serial diluted test compounds were added in each well, and synaptosome fraction of 1/10 volume of the final volume were added. After 10-min preincubation at 37° C., the uptake was initiated by the addition of tritium labeled DA solution (final concentration of 2 nM) at 37° C. The uptake was stopped after 10 minutes by filtration under vacuum through a 96-well glass fiber filter plate. After washing the filter with cold physiological saline and drying up, Microscint-0 (Perkin-Elmer) was added and remained radioactivity on the filter was measured.
The uptake activity with only solvent was determined as 100%, and the nonspecific uptake activity with unlabeled DA (final concentration of 10 μM) was determined as 0%. The 50% inhibitory concentrations were calculated based on the concentrations of the test compounds and their inhibitory activities.

For data set [2], the target named is T2, Norepinephrine (NE) uptake into rat brain synaptosome (hippocampus) (Rattus norvegicus, UniProt Q63380).
T2 construct: used as crude synaptosome fraction; from tissue; host or cells: rat (male Wistar) hippocampus, crude synaptosome fraction
T2 sequence (Q63380 1-617): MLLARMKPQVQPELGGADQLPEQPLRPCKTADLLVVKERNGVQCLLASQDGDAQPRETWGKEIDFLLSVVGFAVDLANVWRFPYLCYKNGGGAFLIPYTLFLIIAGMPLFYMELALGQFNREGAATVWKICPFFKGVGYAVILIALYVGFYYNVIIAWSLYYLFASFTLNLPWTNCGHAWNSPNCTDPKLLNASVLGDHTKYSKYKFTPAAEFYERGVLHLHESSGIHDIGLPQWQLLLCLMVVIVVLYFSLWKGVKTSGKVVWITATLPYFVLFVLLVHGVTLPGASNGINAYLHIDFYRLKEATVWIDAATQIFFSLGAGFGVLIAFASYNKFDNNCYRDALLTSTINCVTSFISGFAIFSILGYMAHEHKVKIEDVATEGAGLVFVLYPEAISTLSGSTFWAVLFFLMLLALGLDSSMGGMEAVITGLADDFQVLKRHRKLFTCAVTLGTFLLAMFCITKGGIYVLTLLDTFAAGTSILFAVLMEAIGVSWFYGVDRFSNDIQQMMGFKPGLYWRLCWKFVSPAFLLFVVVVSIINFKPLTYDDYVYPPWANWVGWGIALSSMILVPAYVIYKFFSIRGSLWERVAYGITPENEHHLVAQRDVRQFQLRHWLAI
In words: Inhibitory activity on norepinephrine (NE) uptake into rat brain synaptosome. Type of data set: biochemical. The note with it: tritium-labeled NE 12 nM uptake, 10 min at 37° C., read-out: 50% inhibitory concentration. As for the experimental part:
Pharmacological Test 2 Evaluation of Inhibitory Activity of Test Compound on Norepinephrine (NE) Uptake into Rat Brain Synaptosome
as §1, with “hippocampi” for “striata”
The uptake reaction mixture was suspended in final volume of 200 μl containing pargyline (final concentration of 10 μM) and sodium ascorbate (final concentration of 0.2 mg/ml) in each well of 96-well-round-bottom-plate.
Solvent, unlabeled NE, and serial diluted test compounds were added to each well, and synaptosome fraction of 1/10 volume of the final volume were added. After 10 minutes preincubation at 37° C., the uptake was initiated by the addition of tritium-labeled NE solution (final concentration of 12 nM) at 37° C. The uptake was stopped after 10 minutes by filtration under vacuum through a 96-well glass fiber filter plate. After washing the filter with cold physiological saline and drying up, Microscint-0 (Perkin-Elmer) was added, and remained radioactivity on the filter was measured.
The total uptake activity with only solvent was determined as 100%, and the nonspecific uptake activity with unlabeled NE (final concentration of 10 μM) was determined as 0%. The 50% inhibitory concentrations were calculated based on the concentrations of the test compounds and their inhibitory activities.

Data set [3] has as its target T3, Serotonin (5-HT) uptake into rat brain synaptosome (frontal cortex) (Rattus norvegicus, UniProt P31652).
T3 construct: used as crude synaptosome fractions; from tissue; host or cells: rat (male Wistar) frontal cortex, crude synaptosome fraction
The data set is described as follows: Inhibitory activity on serotonin (5-HT) uptake into rat brain synaptosome. Type of data set: biochemical. The settings on record: tritium-labeled 5-HT 8 nM uptake, 10 min at 37° C., read-out: 50% inhibittory concentration. As for the experimental part: Pharmacological Test 1 Evaluation of Inhibitory Activity of Test Compound on Serotonin (5-HT) Uptake into Rat Brain Synaptosome
as §1, with “frontal cortices” for “striata”, “fractions.” for “fraction.”
as §2
Solvent, unlabeled 5-HT, and serial diluted test compounds were added in each well, and synaptosome fraction of 1/10 volume of the final volume were added. After a 10 min preincubation at 37° C., the uptake was initiated by the addition of tritium-labeled 5-HT solution (final concentration of 8 nM) at 37° C. The uptake was stopped after 10 minutes by filtration under vacuum through a 96-well glass fiber filter plate. After washing the filter with cold physiological saline and drying up, Microscint-O (Perkin-Elmer) was added, and remained radioactivity on the filter was measured.
The total uptake activity with only solvent was determined as 100%, and the nonspecific uptake activity with unlabeled 5-HT (final concentration of 10 μM) was determined as 0%. The 50% inhibitory concentrations were calculated based on the concentrations of the test compounds and their inhibitory activities.

One may read the melting point as the temperature, or range, at which the solid turns liquid.

T3 sequence (P31652 whole entry): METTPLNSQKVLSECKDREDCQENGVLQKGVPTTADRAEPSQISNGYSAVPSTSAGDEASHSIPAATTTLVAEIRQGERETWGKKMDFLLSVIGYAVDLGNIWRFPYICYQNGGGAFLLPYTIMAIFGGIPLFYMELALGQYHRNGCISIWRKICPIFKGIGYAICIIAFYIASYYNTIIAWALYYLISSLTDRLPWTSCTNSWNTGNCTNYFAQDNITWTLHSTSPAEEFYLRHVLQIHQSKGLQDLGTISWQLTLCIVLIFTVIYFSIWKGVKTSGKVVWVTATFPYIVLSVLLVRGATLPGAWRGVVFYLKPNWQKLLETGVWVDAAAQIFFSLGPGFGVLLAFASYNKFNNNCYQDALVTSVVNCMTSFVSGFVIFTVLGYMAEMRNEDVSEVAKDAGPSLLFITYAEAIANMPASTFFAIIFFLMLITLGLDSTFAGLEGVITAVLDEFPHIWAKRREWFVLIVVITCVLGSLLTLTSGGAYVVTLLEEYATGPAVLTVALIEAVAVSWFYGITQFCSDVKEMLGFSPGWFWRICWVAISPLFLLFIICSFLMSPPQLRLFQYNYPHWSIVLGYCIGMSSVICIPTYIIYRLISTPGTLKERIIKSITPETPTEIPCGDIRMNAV

`CS(=O)(=O)O.CS(=O)(=O)O.Fc1ccc(N(c2cccnc2)[C@H]2CCNC2)cc1Cl` [Example 7, (3-chloro-4-fluorophenyl) pyridin-3-yl-(S)-pyrrolidin-3-ylamine dimethanesulfonate] showed a melting point of 194 to 195 °C. The pIC50 in data set [1] is 7.35. Also, in data set [2], the pIC50 was 9.40. The pIC50 in data set [3] is 8.52.

The molecule `Fc1ccc(N(c2ccc(-c3cnco3)cc2)[C@H]2CCNC2)cc1Cl` [Example 90] yielded a melting point of 115 to 117 °C. For the same molecule, in data set [1], the pIC50 was 8.32. The pIC50 in data set [2] was 9.15. The pIC50 in data set [3] is 8.92.

Turning to `CSc1ccc(N(c2ccccc2)[C@H]2CCNC2)cc1` (as salt: fumarate) [Example 19], the melting point was 152.9 to 155.5 °C.

In the case of `Fc1ccc(N(c2ccc3cnsc3c2)[C@H]2CCNC2)cc1Cl` (as salt: hydrochloride) [Example 930], the melting point fell in the range of 150 to 156 °C.

The molecule `Fc1ccc(N(c2ccc(N3CCNCC3)cn2)[C@H]2CCNC2)cc1Cl` (as salt: hydrochloride) [Example 200] returned a melting point of 212 to 215 °C.

Turning to `Cc1ccc(N(c2ccccc2)[C@H]2CCNC2)cc1` (as salt: fumarate) [Example 22], the melting point was 141.7 to 143.8 °C.

As for `Fc1ccc(N(c2nccs2)[C@H]2CCNC2)cc1Cl` (as salt: fumarate) [Example 131], the melting point was 128 to 129.9 °C.
